Results reported in patent publication US6911455B2, “Methods for preparing pharmaceutical formulations” (SmithKline Beecham Corporation, priority 1999, dated 2005).
Where “and” joins values, the source holds several entries; their conditions need not be identical. Identical values can stand only once.

Experiments:
[1] = Surface tension analysis (DuNouy ring method); format: physicochemical
Excerpt: Aggregation of the histamine releaser in the reference solution and the comparative solution(s) can be measured by measuring the surface tension of each of the reference solution and the comparative solution(s) using the DuNouy ring method, as described in PHYSICAL PHARMACY: PHYSICAL CHEMICAL PRINCIPLES IN THE PHARMACEUTICAL SCIENCES, Editors: Alfred Martin, James Swarbrick, Arthur Cammarata, Third Edition, Lea Et Febiger, Philadelphia, 1983. Surface tension may provide a measure of the critical micelle concentration of the histamine releaser in solution and for this reason is an indicator of aggregation of the histamine releaser in the solution. […]
The surface tension properties of the histamine liberating agent can be evaluated using the DuNouy ring method. […]
The force required to detach the ring in this manner is provided by a torsion wire and is recorded in dynes on a calibrated dial. […]
The tensiometer is calibrated with filtered water and the surface tension of a 50 mg/mL solution of Compound 1 in water is evaluated at room temperature.
The surface tension of each solution is evaluated at room temperature and the results are recorded in a curve of surface tension (y-axis) versus concentration of drug (x-axis).

[2] = Proton NMR relaxation rates (T1, T2) as measure of aggregation; format: physicochemical; settings: for T1 / T2: D2O saline (150 mM NaCl)
Excerpt: There are two types of NMR relaxation, spin-lattice and spin-spin relaxation, referred to as T1 and T2 values, respectively. T1 and T2 are rate constants which measure the relaxation of NMR magnetization back to equilibrium (hereinafter collectively referred to as “NMR relaxation rates”). For small molecules in what is called the extreme narrowing limit, both T1 and T2 increase in inverse proportion to the rotational tumbling rate tc, which, in turn, is directly proportional to the average size of the aggregate. Thus, for small molecules, increases in T1 and/or T2 rates with the addition of excipient to the solution containing the histamine releaser, in the absence of significant changes in the viscosity of the solution, indicates a decrease in aggregation.
Compound 1 and excipient (in the various amounts noted below) are dissolved in 200 μL of D2O with 0.15 M NaCl adjusted to pD 3.0 with NaOD and/or DCl for compound stability reasons. Deuterated saline solution is used in the reference solution because critical compound peaks (or signals) overlap when deuterated water is employed. Samples in a titration series are prepared by serial dilutions. All NMR spectra are recorded at 30° C. on a Varian Unity Plus 500 MHz spectrometer. Spectra are referenced to D2O at 4.65 ppm. All spectra are processed using Varian VNMR® software v6.1a. T1 and T2 relaxation rates are measured using the standard inversion-recovery and Carr-Purcell-Meiboom-Gill (CPMG) experiments respectively, both of which are provided with the Varian software. CPMG experiments are described in M. Bulsing, et al., J. Chem. Soc. Chem. Commun. 1201-3 (1981); R. Freeman et al., IN DYNAMIC NMR SPECTROSCOPY, eds. L. Jackman and F. Cotton (1975) pp. 131-162, Academic Press, London and New York; and D. Rabenstein, et al., J. Magn. Reson. 64:541-546 (1985).
A series of solutions with increasing concentrations of Compound 1 in D2O saline, pD 3.0 are prepared and the NMR relaxation rate constants measured. Both T1S and T2S are measured because the drug, with a molecular weight of 1064.51, could lie outside the extreme motional narrowing limit for NMR, in which case, T1S would be expected to decrease and T2S would be expected to increase with a decrease in aggregation. See, K. Wüthrich, NMR OF PROTEINS AND NUCLEIC ACIDS, (1986) John Wiley Sons, New York.
A series of solutions containing 80 mM Compound 1 with increasing concentrations of d4-citrate in D2O saline, pD 3.0, are prepared, and the NMR relaxation rates are measured. The data obtained is summarized in Table 2 and reported graphically in FIG. 2.
A series of solutions containing 80 mM Compound 1 and varying concentrations of CaCl2 and d4-citrate in D2O saline, pD 3.0, are prepared, and the NMR relaxation rates are measured.

[3] = 80 mM Compound 1, d4-citrate 0.78 mM, pD 3
[4] = 80 mM Compound 1, d4-citrate 1.56 mM, pD 3
[5] = 80 mM Compound 1, d4-citrate 3.13 mM, pD 3
[6] = 80 mM Compound 1, d4-citrate 6.25 mM, pD 3
[7] = 80 mM Compound 1, d4-citrate 12.5 mM, pD 3
[8] = 80 mM Compound 1, d4-citrate 25 mM, pD 3
[9] = 80 mM Compound 1, d4-citrate 50 mM, pD 3
[10] = 80 mM Compound 1, d4-citrate 100 mM, pD 3
[11] = vinyl proton, 20 mM Compound 1, pD 3, 30° C.
[12] = vinyl proton, 40 mM Compound 1, pD 3, 30° C.
[13] = vinyl proton, 80 mM Compound 1, no excipient (reference solution), pD 3, 30° C.
[14] = vinyl proton, 160 mM Compound 1, pD 3, 30° C.

COc1cc2c(cc1OC)[C@H](c1cc(OC)c(OC)c(OC)c1)[N@@+](C)(CCCOC(=O)/C=C(\Cl)C(=O)OCCC[N@+]1(C)CCc3cc(OC)c(OC)cc3[C@H]1Cc1cc(OC)c(OC)c(OC)c1)CC2.[Cl-].[Cl-] [Compound 1, (Z)-2-chloro-1-{3-{(1R,2S)-6,7-dimethoxy-2-methyl-1-[(3,4,5-trimethoxyphenyl)methyl]-1,2,3,4-tetrahydro-2-isoquinolinio}propyl}-4-{3-[(1S,2R)-6,7-dimethoxy-2-methyl-1-(3,4,5-trimethoxyphenyl)-1,2,3,4-tetrahydro-2-isoquinolinio]propyl}-2-butenedioate dichloride]
surface tension versus concentration ([1]; 1-50 mg/mL in water, room temperature, FIG. 1): concentration dependent surface tension lowering
critical micelle concentration ([1]; in water): about 14 mM
slowing of relaxation rates compared to the reference solution ([2]; 80 mM Compound 1, 50 mM d4-citrate, D2O saline, pD 3): at least 25%
change in the T1 value (slowing of the relaxation rate) compared to the reference solution ([2]; 80 mM Compound 1, CaCl2 + d4-citrate, all but the two lowest concentrations of CaCl2 of Table 3): greater than 25%
d4-citrate concentration giving maximal effect on decreasing aggregation ([2]; 80 mM Compound 1, D2O saline, pD 3): 50 mM
T1 ([2]; 80 mM Compound 1, d4-citrate 0.78 mM + CaCl2 100 mM, pD 3): 2.78 s
T1 [2, 3]: 1.53 s
T2 [2, 3]: 0.57 s
T1 [2, 4]: 1.65 s
T2 [2, 4]: 0.59 s
T1 [2, 5]: 1.69 s
T2 [2, 5]: 0.67 s
T1 ([2]; 80 mM Compound 1, d4-citrate 5 mM + CaCl2 3.13 mM, pD 3): 1.45 s
T1 ([2]; 80 mM Compound 1, d4-citrate 5 mM + CaCl2 6.25 mM, pD 3): 1.47 s
T1 ([2]; 80 mM Compound 1, d4-citrate 5 mM + CaCl2 12.5 mM, pD 3): 1.51 s
T1 ([2]; 80 mM Compound 1, d4-citrate 5 mM + CaCl2 25 mM, pD 3): 1.89 s
T1 ([2]; 80 mM Compound 1, d4-citrate 5 mM + CaCl2 50 mM, pD 3): 1.94 s
T1 ([2]; 80 mM Compound 1, d4-citrate 5 mM + CaCl2 100 mM, pD 3): 2.14 s
T1 [2, 6]: 1.24 s
T2 [2, 6]: 0.69 s
T1 [2, 7]: 2.09 s
T2 [2, 7]: 1.01 s
T1 [2, 8]: 2.03 s
T2 [2, 8]: 0.87 s
T1 ([2]; 80 mM Compound 1, d4-citrate 50 mM + CaCl2 100 mM, pD 3): 2.26 s
T1 [2, 9]: 2.13 s
T2 [2, 9]: 1.31 s
T1 [2, 10]: 1.96 s
T2 [2, 10]: 0.85 s
critical micelle concentration ([2]; in saline (D2O saline, pD 3)): 40 to 80 mM
T1 ([2]; vinyl proton, 10 mM Compound 1, pD 3, 30° C.): 2.05 s
T1 [2, 11]: 2.30 s
T2 [2, 11]: 2.04 s
T1 [2, 12]: 2.49 s
T2 [2, 12]: 1.96 s
T1 [2, 13]: 1.20 s and 1.2 s
T2 [2, 13]: 0.38 s
T1 [2, 14]: 0.83 s
T2 [2, 14]: 0.13 s
